Columns and labels:
FIH = FIH (Homo sapiens, UniProt Q9NWT6); assay: O-phenylenediamine (OPD) 2OG derivatization turnover assay (remaining 2OG in FIH hydroxylation system); type: biochemical; parameters: Concentration of remaining 2OG: unit: µM
Procedure: To explore whether the covalent inhibitor can effectively and sustainably prevent the hydroxylation process catalyzed by FIH, the inhibitory activities against FIH were evaluated using the fluorescent O-phenylenediamine (OPD) 2OG derivatization turnover assay (Figure S9).
Figure S9. Schematic of the O-phenylenediamine (OPD) fluorescent derivative assay6. The assay monitors depletion of 2OG.
(1 picture or pasted object on this page, not shown here) […]
pET28a vectors encoding for full-length FIH with an N-terminal His6 tag or for FIH (K106A) with an N-terminal His6 tag were purchased from Nanjing Zoonbio Biotechnology. Both the FIHWT and FIHK106A protein were expressed from the respective plasmid in Escherichia coli BL21 at 20 °C for 16 h. E. coli cells were lysed and the lysate were clarified by centrifugation. His6-tagged FIHWT or FIHK106A was purified on a HisTrap affinity column (GE Healthcare) by elution with an imidazole gradient. The final purified proteins were stored in PBS buffer. […]
Ki = I50 / [1 + ([L]50 + [P]0)/Kd] […]
3.2 O-Phenylenediamine (OPD) fluorescent derivative assay
Assays were carried out by mixing 1 mM DTT, 0.6 mg/mL of catalase, 200 μM 2-OG, 50 mM Hepes, 200 μM HIF-1α (788-807), and inhibitors at pH 7.0 to a final volume of 44 μL and incubated at 37 °C for 5 min. At the same time, FIH enzyme and iron (prepared as 200 mM stock in 20 mM HCl and diluted with water) were mixed at room temperature for 3 min. […] The reaction was stopped by the addition of 100 μL of 0.5 M HCl. After adding 50 μL of 10 mg/mL OPD in 0.5 M HCl and heating at 95 °C for 10 min, the derivatization was achieved. Then, 50 μL of the mixture centrifugated for 5 min was made basic by adding 30 μL of 1.25 M NaOH, and then fluorescence was detected by SPARK Multi-Mode Microplate Reader (Tecan). […]
Crystals were cryo -protected using mother liquor supplemented with 25%v/v glycerol before manual loop cryo -cooling in liquid N2.
Data for ligand -bound protein complexes were from single crystals at 100 K using Diamond Light Source (UK) beamlines. The FIH crystal structures were determined by molecular replacement (MR) using the AutoMR (PHASER) subroutine in PHENIX (version 1.18.2) based on the PDB ID: 1H2K crystal structure .

[1] = test system: EGLN3 mRNA level in Hep3B cells; assay: qRT-PCR of FIH-dependent HIF target gene EGLN3 in Hep3B cells; type: cell-based
Procedure: 5 […] sustainably engages with FIH and regulates the expression of FIH-dependent HIF target gene EGLN3 in Hep3B cells. (A) The CETSA assay was carried out with Hep3B cells grown in the presence of NBA-ZG-2291 (50 μM) for 12–48 h after 30 min of light activation (365 nm, 16 W). The intensity of the bands for grayscale analysis was referenced to the starting temperature (37 °C). α-Actinin was the sample loading control. n = 2; mean ± SD. […] (E) Correlation heatmap of the NBA-ZG-2291-treated group and the siFIH group by RNA-sequencing analysis. […] The relative fold change with respect to DMSO treated sample is shown (with normalization to HPRT gene levels). Mean ± SEM; n = 3. (G) TG level of NBA-ZG-2291-treated 3T3-L1-derived adipocytes. Mean ± SEM; n = 3. (H) Representative Oil Red O-stained images of the control, ZG-2291-treated, and NBA-ZG-2291-treated 3T3-L1-derived adipocytes. Scale Bar, 30 μm. P values were analyzed by two-way ANOVA comparing with the vehicle/control group (*, P < 0.05; **, P < 0.01; ***, P < 0.001, ****, P < 0.0001). See Methods (Quantitative PCR Analysis of Gene Expression) for assay details. TEXT PRINTED IN THE PICTURE: (A) no label printed: FIH: ΔTm (°C): 8.87 (Incubation time: 12 h); FIH: ΔTm (°C): 9.28 (Incubation time: 24 h); FIH: ΔTm (°C): 8.86 (Incubation time: 48 h); α-actinin: ΔTm (°C): 0.30 (Incubation time: 12 h); α-actinin: ΔTm (°C): -0.03 (Incubation time: 24 h); α-actinin: ΔTm (°C): -0.45 (Incubation time: 48 h) DOUBTS OF THE COPYIST ABOUT THIS PICTURE: Panel A: the picture prints no substance label with the ΔTm tables, so the label is left empty
The Egl-9 family hypoxia-inducible factor 3 gene (EGLN3, PHD3) is a HIF target gene, expression of which is negatively regulated by FIH catalysis, , potentially in a context-dependent manner. We therefore investigated the effect of the light-induced covalent inhibitor NBA-ZG-2291 on EGLN3 expression levels in Hep3B cells using ZG-2291 as a positive inhibition control. […] At a concentration of 10 μM, NBA-ZG-2291 increased EGLN3 expression by ∼2.5-fold with irradiation.
We also compared the time-dependent regulation of NBA-ZG-2291 on the HIF pathway with that of ZG-2291. […] This may result from the limited action time of the reversible inhibitor, perhaps due to its metabolism. The overall results provide strong evidence that the light-induced, lysine-targeting irreversible covalent inhibitor NBA-ZG-2291 can effectively and sustainably engage FIH, leading to the upregulation of FIH-dependent HIF target gene expression.

Chain of FIH (Q9NWT6 whole entry): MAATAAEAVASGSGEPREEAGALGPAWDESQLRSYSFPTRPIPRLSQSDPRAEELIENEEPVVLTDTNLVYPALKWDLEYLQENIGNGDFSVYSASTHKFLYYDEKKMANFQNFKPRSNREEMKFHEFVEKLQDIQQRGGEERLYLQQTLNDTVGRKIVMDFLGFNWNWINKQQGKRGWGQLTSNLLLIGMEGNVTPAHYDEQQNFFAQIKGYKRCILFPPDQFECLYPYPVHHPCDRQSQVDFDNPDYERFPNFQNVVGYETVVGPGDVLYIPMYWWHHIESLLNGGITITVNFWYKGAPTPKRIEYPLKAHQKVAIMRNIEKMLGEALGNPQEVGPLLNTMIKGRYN

O=C(O)CNC(=O)c1ncc(-c2cc(-c3cccc(Cl)c3)no2)cc1O [ZG-2291, reference compound]
Concentration of remaining 2OG (FIH; inhibitor 0.14 μM, incubation 0 min, 200 μM 2-OG at start): 200.0 | Concentration of remaining 2OG (FIH; inhibitor 0.14 μM, incubation 15 min): 182.9 | Concentration of remaining 2OG (FIH; inhibitor 0.14 μM, incubation 30 min): 173.3 | Concentration of remaining 2OG (FIH; inhibitor 0.14 μM, incubation 1 h): 163.0 | Concentration of remaining 2OG (FIH; inhibitor 0.14 μM, incubation 4 h): 140.5 | Concentration of remaining 2OG (FIH; inhibitor 0.41 μM, incubation 0 min, 200 μM 2-OG at start): 200.0 | Concentration of remaining 2OG (FIH; inhibitor 0.41 μM, incubation 15 min): 184.2 | Concentration of remaining 2OG (FIH; inhibitor 0.41 μM, incubation 30 min): 176.4 | Concentration of remaining 2OG (FIH; inhibitor 0.41 μM, incubation 1 h): 162.3 | Concentration of remaining 2OG (FIH; inhibitor 0.41 μM, incubation 4 h): 153.7 | Concentration of remaining 2OG (FIH; inhibitor 1.23 μM, incubation 0 min, 200 μM 2-OG at start): 200.0 | Concentration of remaining 2OG (FIH; inhibitor 1.23 μM, incubation 15 min): 190.8 | Concentration of remaining 2OG (FIH; inhibitor 1.23 μM, incubation 30 min): 184.4 | Concentration of remaining 2OG (FIH; inhibitor 1.23 μM, incubation 1 h): 172.8 | Concentration of remaining 2OG (FIH; inhibitor 1.23 μM, incubation 4 h): 159.4 | Concentration of remaining 2OG (FIH; inhibitor 3.70 μM, incubation 0 min, 200 μM 2-OG at start): 200.0 | Concentration of remaining 2OG (FIH; inhibitor 3.70 μM, incubation 15 min): 192.8 | Concentration of remaining 2OG (FIH; inhibitor 3.70 μM, incubation 30 min): 190.8 | Concentration of remaining 2OG (FIH; inhibitor 3.70 μM, incubation 1 h): 181.0 | Concentration of remaining 2OG (FIH; inhibitor 3.70 μM, incubation 4 h): 167.9 | Concentration of remaining 2OG (FIH; inhibitor 11.1 μM, incubation 0 min, 200 μM 2-OG at start): 200.0 | Concentration of remaining 2OG (FIH; inhibitor 11.1 μM, incubation 15 min): 195.1 | Concentration of remaining 2OG (FIH; inhibitor 11.1 μM, incubation 30 min): 194.6 | Concentration of remaining 2OG (FIH; inhibitor 11.1 μM, incubation 1 h): 184.1 | Concentration of remaining 2OG (FIH; inhibitor 11.1 μM, incubation 4 h): 175.9 | Concentration of remaining 2OG (FIH; inhibitor 33.3 μM, incubation 0 min, 200 μM 2-OG at start): 200.0 | Concentration of remaining 2OG (FIH; inhibitor 33.3 μM, incubation 15 min): 195.6 | Concentration of remaining 2OG (FIH; inhibitor 33.3 μM, incubation 30 min): 195.3 | Concentration of remaining 2OG (FIH; inhibitor 33.3 μM, incubation 1 h): 189.4 | Concentration of remaining 2OG (FIH; inhibitor 33.3 μM, incubation 4 h): 181.4 | Concentration of remaining 2OG (FIH; inhibitor 100 μM, incubation 0 min, 200 μM 2-OG at start): 200.0 | Concentration of remaining 2OG (FIH; inhibitor 100 μM, incubation 15 min): 199.4 | Concentration of remaining 2OG (FIH; inhibitor 100 μM, incubation 30 min): 197.3 | Concentration of remaining 2OG (FIH; inhibitor 100 μM, incubation 1 h): 193.2 | Concentration of remaining 2OG (FIH; inhibitor 100 μM, incubation 4 h): 186.6 | Concentration of remaining 2OG (FIH; inhibitor 300 μM, incubation 0 min, 200 μM 2-OG at start): 200.0 | Concentration of remaining 2OG (FIH; inhibitor 300 μM, incubation 15 min): 200.0 | Concentration of remaining 2OG (FIH; inhibitor 300 μM, incubation 30 min): 199.1 | Concentration of remaining 2OG (FIH; inhibitor 300 μM, incubation 1 h): 196.6 | Concentration of remaining 2OG (FIH; inhibitor 300 μM, incubation 4 h): 193.3 | Effect of irradiation on EGLN3 expression [1]: not affected by irradiation | Upregulation of EGLN3 mRNA level ([1]; 20 μM, absence of irradiation): ~2.2 fold | EGLN3 mRNA levels versus DMSO ([1]; after 16 h treatment): no significant difference compared to the negative control

Source: publication PMC12123601, “Light-Induced, Lysine-Targeting Irreversible Covalent Inhibition of the Human Oxygen Sensing Hydroxylase Factor Inhibiting HIF (FIH)” (Journal of the American Chemical Society, 2025)
